From patent US20240228512A1, “ACYCLIC OXAZEPINE COMPOUNDS COMPRISING A 6-AZA MOIETY AND USES THEREOF” (Genentech, Inc., priority 2022, published 2024)
Where two headings read alike, the source gives them in different places.

Columns and labels:
SW620 PERK = SW620 PERK assay; assay type: cell-based
H1975 cells = assay: H1975 CTG proliferation assay; assay type: cell-based
SW620 cells = assay: SW620 3D proliferation assay (CellTiter-Glo); assay type: cell-based; conditions: SW620, 3D culture, 7 days, read-out: SW620 CTG IC50
In short: (§1)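 Cells were seeded in ultra-low attachment plates (3000 or 1000 cells/well for 96- or 384-well format) in RPMI-1640, 10% FBS, 2 mM L-glutamine and cultured overnight at 37 °C/5% CO2 to form spheroids. Compounds were added by 333-fold dilution from DMSO for 7 days. Viability was read as CellTiter-Glo 3D ATP luminescence, with IC50 from a 4-parameter logistic fit.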

[1] = target: recombinant human mutant KRas G12V (SOS1-mediated nucleotide exchange) (Homo sapiens (Human), UniProt P01116, G12V); assay: KRAS biochemical assay, BODIPY-GDP exchange TR-FRET (G12V-GDP HTRF)
[2] = target: recombinant human KRAS wild type (SOS1-mediated nucleotide exchange) (Homo sapiens (Human), UniProt P01116); assay: KRAS biochemical assay, BODIPY-GDP exchange TR-FRET (WT-GDP HTRF)
SW480 cells = assay: SW480 CTG proliferation assay; assay type: cell-based; conditions: Homo sapiens
HPAC cells = assay: HPAC 3D proliferation assay (CellTiter-Glo); assay type: cell-based; conditions: 3D culture, 7 days, read-out: HPAC CTG IC50
In short: as §1

[3] = Homo sapiens, SW-620, SW620, PERK
[4] = Homo sapiens, NCI-H1975, H1975, CTG

Sequence of recombinant human mutant KRas G12V (SOS1-mediated nucleotide exchange) (P01116-2 other isoform, or with tags, fused parts or gaps G12V): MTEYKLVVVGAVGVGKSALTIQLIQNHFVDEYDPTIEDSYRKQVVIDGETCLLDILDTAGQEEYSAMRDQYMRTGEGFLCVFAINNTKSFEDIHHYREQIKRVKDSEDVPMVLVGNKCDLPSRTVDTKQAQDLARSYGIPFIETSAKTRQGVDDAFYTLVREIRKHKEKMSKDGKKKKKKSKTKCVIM
Sequence of recombinant human KRAS wild type (SOS1-mediated nucleotide exchange) (P01116-2 other isoform, or with tags, fused parts or gaps): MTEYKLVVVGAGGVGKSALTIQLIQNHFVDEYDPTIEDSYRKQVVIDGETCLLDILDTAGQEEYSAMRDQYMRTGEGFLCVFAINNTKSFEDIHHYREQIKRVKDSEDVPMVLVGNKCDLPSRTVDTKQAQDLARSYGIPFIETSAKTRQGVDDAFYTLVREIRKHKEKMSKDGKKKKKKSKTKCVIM

Row | IC50 (SW620 PERK; [3]) [nM] | IC50 (H1975 cells; [4]) [nM] | IC50 (SW620 cells; Homo sapiens, SW-620, 168 h) [nM] | IC50 [1] [nM] | IC50 [2] [nM] | IC50 (SW480 cells) [nM] | IC50 (SW620 PERK; SW620, PERK) [nM] | IC50 (H1975 cells; H1975, CTG) [nM] | IC50 (SW620 cells) [nM] | SMILES | IC50 (HPAC cells; Homo sapiens, 168 h) [nM] | IC50 (HPAC cells) [nM]
1 | 19.3 | 77 | 32.3 | 0.11 | 0.26 | 350 |  |  |  | C[C@H](c1cccnc1N)N1CCOc2nc(-c3cc(O)cc4ccccc34)c(F)c3nc(OC[C@@]45CCCN4C[C@H](F)C5)nc1c23 [Example 26, 4-(10-((R)-1-(2-aminopyridin-3-yl)ethyl)-4-fluoro-2-(((2R,7aS)-2-fluorotetrahydro-1H-pyrrolizin-7a(5H)-yl)methoxy)-9,10-dihydro-8H-7-oxa-1,3,6,10-tetraazacyclohepta[de]naphthalen-5-yl)naphthalen-2-ol] | 416 | 
2 | 2.65 | 116 | 13.9 | 0.17 | 0.434 | 130 |  |  |  | Cc1nc(N)cc(-c2nc3c4c(nc(OC[C@@]56CCCN5C[C@H](F)C6)nc4c2F)N([C@H](C)c2cccnc2N)CCO3)c1C(F)(F)F [Example 14, 4-(10-((R)-1-(2-aminopyridin-3-yl)ethyl)-4-fluoro-2-(((2R,7aS)-2-fluorotetrahydro-1H-pyrrolizin-7a(5H)-yl)methoxy)-9,10-dihydro-8H-7-oxa-1,3,6,10-tetraazacyclohepta[de]naphthalen-5-yl)-6-methyl-5-(trifluoromethyl)pyridin-2-amine] | 76 | 
3 | 1.29 | 2.59 | 2.41 | 0.08 | 0.0671 | 2.9 |  |  |  | C#Cc1c(F)ccc2cc(O)cc(-c3nc4c5c(nc(OC[C@@]67CCCN6C[C@H](F)C7)nc5c3F)N([C@H](C)c3cccnc3N)CCO4)c12 [Example 2, 4-(10-((R)-1-(2-aminopyridin-3-yl)ethyl)-4-fluoro-2-(((2R,7aS)-2-fluorotetrahydro-1H-pyrrolizin-7a(5H)-yl)methoxy)-9,10-dihydro-8H-7-oxa-1,3,6,10-tetraazacyclohepta[de]naphthalen-5-yl)-5-ethynyl-6-fluoronaphthalen-2-ol] | 20.8 | 
4 | 7.68 | 7.23 | 13.4 | 0.21 | 0.215 | 120 |  |  |  | Cc1cc(N)nc(-c2nc3c4c(nc(OC[C@@]56CCCN5C[C@H](F)C6)nc4c2F)N([C@H](C)c2cccnc2N)CCO3)c1C(F)(F)F [Example 6, 6-(10-((R)-1-(2-aminopyridin-3-yl)ethyl)-4-fluoro-2-(((2R,7aS)-2-fluorotetrahydro-1H-pyrrolizin-7a(5H)-yl)methoxy)-9,10-dihydro-8H-7-oxa-1,3,6,10-tetraazacyclohepta[de]naphthalen-5-yl)-4-methyl-5-(trifluoromethyl)pyridin-2-amine] | 43.7 | 
5 |  |  |  | 0.05 | 0.07 | 2.4 | 0.555 | 2.59 | 1 | Cc1cc(N)c(Cl)c(-c2nc3c4c(nc(OC[C@@]56CCCN5C[C@H](F)C6)nc4c2F)N([C@H](C)c2cccnc2N)CCO3)c1C(F)(F)F (single isomer, unassigned) [Example 21b] |  | 4.43
6 | 1.13 | 2.59 | 1.96 | 0.04 | 0.12 | 12 |  |  |  | C#Cc1cccc2cc(O)cc(-c3nc4c5c(nc(OC[C@@]67CCCN6C[C@H](F)C7)nc5c3F)N([C@H](C)c3cccnc3N)CCO4)c12 [Example 7, 4-(10-((R)-1-(2-aminopyridin-3-yl)ethyl)-4-fluoro-2-(((2R,7aS)-2-fluorotetrahydro-1H-pyrrolizin-7a(5H)-yl)methoxy)-9,10-dihydro-8H-7-oxa-1,3,6,10-tetraazacyclohepta[de]naphthalen-5-yl)-5-ethynyinaphthalen-2-ol] | 19.3 | 
7 | 2.15 | 2.54 | 3.55 | 0.21 | 0.325 | > 200 |  |  |  | Cc1cc(N)nc(-c2nc3c4c(nc(OC[C@@]56CCCN5C[C@]5(CC5(F)F)C6)nc4c2F)N([C@H](C)c2cccnc2N)CCO3)c1C(F)(F)F [Example 635] | 11.8 | 
8 | 4.64 | 2.59 | 8.46 | 0.09 | 0.195 | > 200 |  |  |  | Cc1c(F)c(N)cc(-c2nc3c4c(nc(OC[C@@]56CCCN5C[C@]5(CC5(F)F)C6)nc4c2F)N([C@H](C)c2cncnc2N)CCO3)c1C(F)(F)F [Example 616] | 50.4 | 
9 | 1.33 | 176 | 1.71 | 0.069 | 0.178 | 20 |  |  |  | Cc1c(F)c(N)c(F)c(-c2nc3c4c(nc(OC[C@@]56CCCN5C[C@H](F)C6)nc4c2Cl)N([C@H](C)c2cccnc2N)CCO3)c1C(F)(F)F (atropisomer, axis not shown; (aS)) [Example 629a, 3-((R)-1-((R)-5-(3-amino-2,4-difluoro-5-methyl-6-(trifluoromethyl)phenyl)-4-chloro-2-(((2R,7aS)-2-fluorotetrahydro-1H-pyrrolizin-7a(5H)-yl)methoxy)-8,9-dihydro-10H-7-oxa-1,3,6,10-tetraazacyclohepta[de]naphthalen-10-yl)ethyl)pyridin-2-amine] | 15.3 | 
10 | 0.72 | 12.8 | 1.14 | 0.045 | 0.0529 | 5.8 |  |  |  | Cc1c(F)c(N)cc(-c2nc3c4c(nc(OC[C@@]56CCCN5C[C@H](F)C6)nc4c2F)N([C@H](C)c2cccnc2N)CCO3)c1C(F)(F)F [Example 5, 3-((R)-1-(5-(5-amino-4-fluoro-3-methyl-2-(trifluoromethyl)phenyl)-4-fluoro-2-(((2R,7aS)-2-fluorotetrahydro-1H-pyrrolizin-7a(5H)-yl)methoxy)-8,9-dihydro-10H-7-oxa-1,3,6,10-tetraazacyclohepta[de]naphthalen-10-yl)ethyl)pyridin-2-amine] | 5.06 | 
